Measured values reported in PMC9352670 (2022).

Legend:
Experiment in all cases: microscale thermophoresis
[1] = system: Dm-CCS-5 (DNA, aptamer, HFNAP: side-chain on 5' nucleobase of each coding trinucleotide, positions 19,22,25,...,61 (codon key Figure 1B)) GAAAGCAGGACTGGAGATTTCTACTATCTCCAGCCGTTCCACCACTGATGCCCTTAGTATCCTCAGACCGAACTAGAGCTT; settings: 5 mM KCl, 1 mM MgCl2, 1 mM CaCl2 added; HBS-P+ buffer, 25 °C
[2] = system: Dm-LS-4 (DNA, aptamer, HFNAP: side-chain on 5' nucleobase of each coding trinucleotide, positions 19,22,25,...,61 (codon key Figure 1B)) GAAAGCAGGACTGGAGATCCGCGCCGCTTTTATCCCTAGTCCCTCTTACCCTACTTCCCCTTACAGACCGAACTAGAGCTT; settings: 5 mM KCl, 1 mM MgCl2, 1 mM CaCl2 added; HBS-P+ buffer, 25 °C
[3] = system: Dm-HS-1 TCC ∆ s.c. (DNA, aptamer, no side-chain at 52 (codon 12 TCC); others as HFNAP: fluorophenyl at 19; allylamine at 22, 25, 37; alcohol at 28, 34, 49; phenol at 31, 46; cyclopentyl at 40; cyclopropyl at 43, 58; imidazole at 55, 61) GAAAGCAGGACTGGAGATCGATTCTGGTGCTGTTGATCTCCGCCATTGTGCTCCTACCCTTCACAGACCGAACTAGAGCTT; settings: 5 mM KCl, 1 mM MgCl2, 1 mM CaCl2 added to HBS-P+; HBS-P+ buffer, 25 °C
[4] = system: Dm-HS-1 CCG ∆ s.c. (DNA, aptamer, no side-chain at 40 (codon 8 CCG); others as HFNAP: fluorophenyl at 19; allylamine at 22, 25, 37; alcohol at 28, 34, 49; phenol at 31, 46; cyclopropyl at 43, 58; imidazole at 52, 55, 61) GAAAGCAGGACTGGAGATCGATTCTGGTGCTGTTGATCTCCGCCATTGTGCTCCTACCCTTCACAGACCGAACTAGAGCTT; settings: 5 mM KCl, 1 mM MgCl2, 1 mM CaCl2 added to HBS-P+; HBS-P+ buffer, 25 °C
[5] = system: Dm-HS-4 ∆ s.c. (DNA, aptamer, none (no side-chains)) GAAAGCAGGACTGGAGATCGATTCTGGTGCTGTTGATCTCCGCCATTGTGCTCCTACCCTTCGCAGACCGAACTAGAGCTT; settings: 5 mM KCl, 1 mM MgCl2, 1 mM CaCl2 added; HBS-P+ buffer, 25 °C

COc1cccc2c1C(=O)c1c(O)c3c(c(O)c1C2=O)C[C@@](O)(C(C)=O)C[C@@H]3O[C@H]1C[C@H](N)[C@H](O)[C@H](C)O1
Kd [1]: 10.4 ± 1.5 nM | Kd [2]: 1980 ± 70 nM | Kd [3]: 29.9 ± 10.2 nM | Kd [4]: 21.9 ± 2.6 nM | Kd ∆ side-chains [5]: 1810 ± 57 nM
